Results on one molecule are retold here after US11117888B2, “Irreversible inhibitors of pyruvate kinase M2 and the use thereof” (China Medical University, priority 2020, dated 2021).

The subject of data set [1] is ROS production in PC-9 cells. As to the kind of experiment: ROS assay. The class given is cell-based, human. Particulars: 0.25 μM and 0.5 μM, 6 hours. How it is done: ROS assay. ROS detection was performed by using a fluorescent assay kit from BioVision (Milpitas, Calif., USA) according to the manufacturer's instructions. Briefly, PC-9 cells were seeded into 96-well plate at a cell density of 2×10^4 cells per well. After 24 hours, cells were treated with indicated concentration of compound 1 or DMSO for 6 hours. After treatment, cells were washed in ROS assay buffer and then incubated with 1×ROS label diluted in ROS assay buffer for 45 min at 37° C. in the dark. The ROS label was removed, and the fluorescence at Ex/Em 495/529 nm in end point mode was measured immediately after 100 μl of ROS assay buffer was added to each well.

A further data set has as its system PC-9 xenograft tumors. The data set is described as follows: PC-9 xenograft tumor model in nude mice. The data set is classed as in vivo. Particulars: 10 mg/kg once daily i.p., 25 days. How it is done:
Pursuant to the above in vitro findings, we evaluated the in vivo tumor-suppressive efficacy of compound 1 in an ectopic PC-9 xenograft tumor model. Athymic nude mice bearing established subcutaneous PC-9 tumors were randomly divided into two groups (n=8 for each group; initial tumor volume: vehicle, 50±11 mm^3; compound 1, 53±6 mm^3), and were treated once daily with compound 1 at 10 mg/kg or vehicle via intraperitoneal injection.
In vivo efficacy study. Athymic nude mice were purchased from the National Laboratory Animal Center (Taipei, Taiwan). To assess the effect of compound 1 on tumor growth in vivo, 1×10^6 PC-9 cells were mixed with Matrigel (BD Biosciences) at a 1:1 ratio and subcutaneously implanted into nude mice (6-week-old, female; a total of 16 mice). After 7 days, mice were treated with once daily vehicle or 10 mg/kg compound 1 in sterile water containing 0.5% methylcellulose (w/v)+0.1% Tween-80 (v/v) (n=8 for each group). Tumors were measured with calipers and volumes were calculated using V=(width^2×length)×0.52. On day 25, tumors were excised and weighed. Tumor specimens were collected, and expression of target proteins in tumor lysates were analyzed by Western blotting, which were quantified by ImageJ. according to a published online procedure. (https://openwetware.org/wiki/Protein_Quantification_Using_ImageJ).

The subject of another data set is PC-9 cells. The data set is described as follows: Seahorse Glycolysis Stress assay (ECAR and OCR). The data set is classed as cell-based, human. An excerpt: In light of the role of PKM2 in promoting glycolysis, we hypothesized that the antitumor activity of compound 1 might, in part, be attributable to its ability to reverse the glycolytic phenotype (i.e., Warburg effect) of cancer cells. Accordingly, we examined the effects of compound 1 on the extracellular acidification rate (ECAR) and cellular oxygen consumption rate (OCR) in PC-9 cells, which represent key bioenergetic parameters of glycolysis (lactate production) and mitochondrial respiration (oxidative phosphorylation), respectively, using a commercial kit (Agilent Seahorse XF Glycolysis Stress Test Kit). In the ECAR measurement, glucose, oligomycin (an ATP synthetase inhibitor), and 2-deoxyglucose (2-DG; a hexokinase/glycolysis inhibitor) were added in tandem to glucose-starved cells at different time intervals to activate or interfere with glycolysis, thereby allowing the calculation of the glycolytic flux and glycolytic capacity. […] Meanwhile, the OCR response, a parameter for oxidative phosphorylation, was concurrently monitored. […] It is noteworthy that when glucose was added to the basal medium, there was a decrease in the OCR in the control group. This phenomenon was previously referred to as the “Crabtree effect”, i.e., when glucose is added to activate glycolysis, it might be more favorable for cells to generate ATP through substrate-level phosphorylation, thereby reducing the need of oxidative phosphorylation. However, this glucose-induced drop in OCR became less apparent in the presence of compound 1, which might be associated with the ability of compound 1 to block glycolysis.
Glycolysis Stress assay. Extracellular acidification rate (ECAR) and oxygen consumption rate (OCR) were measured using a Seahorse Bioscience XF96 extracellular flux analyzer (Seahorse Bioscience) according to the manufacturer's protocol. PC-9 ells (5×10^4) were seeded in 96 Seahorse XF Cell Culture Microplate with normal growth medium 24 hours before treatment with compounds. The cells were treated with DMSO or compound 1 for 4 hours at 37° C. under 5% CO2 atmosphere. […]

A further data set deals with PC-9 lung cancer cells. The data set is described as follows: MTT cell viability assay, PC-9. Particulars: Homo sapiens, PC-9 (mutant EGFR), 24 hours. The data set is classed as cell-based. An excerpt:
(§1) Cell lines, cell culture, biochemical reagents, and antibodies. MiaPaCa-2, AsPC-1, and Panc-1 human pancreatic cancer cells, MCF-7 and MDA-MB-231 breast cancer cells, SCC4 and SCC2059 oral cancer cells, PC-3 and LNCaP prostate cancer cells, H157, H460, H1975, PC-9 and H1650 lung cancer cells were obtained from the American Type Culture Collection (ATCC, Manassas, Va.). All these cells were maintained in recommended growth medium (RPMI 1640 or DMEM) supplemented with 10% fetal bovine serum (FBS) (Invitrogen, Carlsbad, Calif., USA) and antibiotics at 37° C. in a humidified incubator containing 5% CO2. For SILAC experiments, PC-9 cells were grown in SILAC DMEM medium (Thermo Fisher) supplemented with 10% dialyzed FBS and 100 μg/mL each of unlabeled L-arginine and L-lysine (light medium) or ^13C/^15N stable isotope-labeled L-arginine and L-lysine (heavy medium). […]
(§2) Cell viability assays. Drug effects on cell viability was assessed by 3-(4,5-dimethylthiazol-2-yl)-2,5-diphenyltetrazolium bromide ([…]) assays. […] The medium was then removed from each well and replaced with DMSO to dissolve the reduced MTT dye for subsequent colorimetric measurement of absorbance at 560 nm. Cell viabilities are expressed as percentages of viable cells relative to the corresponding vehicle-treated control group.
For orientation: Tetrazolium assays rely on reduction of a dye to a coloured formazan, in cell work by metabolically active cells.

A further data set deals with H1975 lung cancer cells. The data set is described as follows: MTT cell viability assay, H1975. Particulars: Homo sapiens, NCI-H1975, H1975 (mutant EGFR), 24 hours. The class given is cell-based.
Source text: as §1, §2

Data set [2] relates to LNCaP prostate cancer cells. The data set is described as follows: MTT cell viability assay, LNCaP. The data set is classed as cell-based. Particulars: Homo sapiens, 24 hours.
Source text: as §1, §2

For data set [3], the system named is PC-3 prostate cancer cells. As to the kind of experiment: MTT cell viability assay, PC-3. The data set is classed as cell-based. Conditions: Homo sapiens; PC-3, MTT, 24 hours.
Source text: as §1, §2

On to `C#CC(=O)Nc1ccc(-n2nc(CCC(=O)NC)cc2-c2ccc(-c3ccc(C(F)(F)F)cc3)cc2)cc1` [compound 1, N-(4-(3-(3-(Methylamino)-3-oxopropyl)-5-(4′-(trifluoromethyl)-[1,1′-biphenyl]-4-yl)-1H-pyrazol-1-yl)phenyl)propiolamide], for which the ROS level result in data set [1] is given as “reduced the ROS level”. Moreover, in the data set with PC-9 xenograft tumors (Western blot), the “expression of PKM2 and binding partners in tumor lysates” value was “significant suppression of the expression of PKM2 and its binding partners EGFR, Stat3, and β-catenin”. Moreover, the body weight loss result in the data set with PC-9 xenograft tumors (relative to control) is recorded as “No appreciable weight loss”. In addition, the “tumor growth (tumor volume and tumor weight)” value in the data set on PC-9 xenograft tumors (relative to vehicle) is given as “significantly suppressed tumor growth”. In addition, the “glycolytic acidification (ECAR)” value in the data set with PC-9 cells (0.25-1 μM, 4 hours) is reported as “suppressed the glycolytic acidification in a concentration-dependent manner”. The “non-glycolytic acidification (ECAR)” value in the data set with PC-9 cells (0.25-1 μM, 4 hours) is reported as “no appreciable effect”. Further, the “oxygen consumption rate (OCR), basal state” value with PC-9 cells (prior to glucose supplementation, relative to DMSO) is reported as “increase oxygen consumption in the basal state”. The IC50 (commonly the midpoint of a concentration-inhibition curve) is 500 nM in the data set on PC-9 lung cancer cells, 1000 nM in the data set on H1975 lung cancer cells, > 2000 nM in data set [2] and 600 nM in data set [3].
